Legend:
Type in all cases: in vivo
[1] = tested on: wheat (Triticum aestivum); experiment: Test A pre-/postemergence plant response
How it was run: (§1)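 Each species was treated preemergence via directed soil spray and postemergence at the one- to two-leaf stage, with compounds formulated in a non-phytotoxic solvent plus surfactant. Visual injury relative to untreated controls was rated after about ten days on a 0–100 scale.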

corn (Zea mays) = experiment: Test A pre-/postemergence plant response
How it was run: as §1

[2] = tested on: velvetleaf (Abutilon theophrasti); experiment: Test A pre-/postemergence plant response
How it was run: as §1

[3] = tested on: barnyardgrass (Echinochloa crus-galli); experiment: Test A pre-/postemergence plant response
How it was run: as §1

[4] = tested on: large crabgrass (Digitaria sanguinalis); experiment: Test A pre-/postemergence plant response
How it was run: as §1

[5] = tested on: morningglory (Ipomoea spp.); experiment: Test A pre-/postemergence plant response
How it was run: as §1

[6] = tested on: giant foxtail (Setaria faberii); experiment: Test A pre-/postemergence plant response
How it was run: as §1

[7] = tested on: pigweed (Amaranthus retroflexus); experiment: Test A pre-/postemergence plant response
How it was run: as §1

[8] = tested on: barnyardgrass (Echinochloa crus-galli); experiment: Test B flooded paddy test; conditions: for Plant response rating, Flood, Barnyardgrass: 250 g ai/ha, flooded paddy test, visual rating on 0 to 100 scale (0 no effect, 100 complete control) after 13 to 15 days; for Plant response rating, Barnyardgrass: Flood (flooded paddy test), 13 to 15 days
How it was run: (§2)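 Seedlings reaching 2 leaves are flooded 3 cm deep; test material is delivered to that water, which stays at the same depth. Plants remain in a greenhouse 13–15 days and are then scored by eye versus controls from 0 to 100.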

[9] = tested on: ducksalad (Heteranthera limosa); experiment: Test B flooded paddy test; conditions: for Plant response rating, Flood, Ducksalad: 250 g ai/ha, flooded paddy test, visual rating on 0 to 100 scale (0 no effect, 100 complete control) after 13 to 15 days; for Plant response rating, Ducksalad: Flood (flooded paddy test), 13 to 15 days
How it was run: as §2

[10] = tested on: umbrella sedge (Cyperus difformis); experiment: Test B flooded paddy test; conditions: for Plant response rating, Flood, Sedge, Umbrella: 250 g ai/ha, flooded paddy test, visual rating on 0 to 100 scale (0 no effect, 100 complete control) after 13 to 15 days; for Plant response rating, Sedge, Umbrella: Flood (flooded paddy test), 13 to 15 days
How it was run: as §2

rice (Oryza sativa) = experiment: Test B flooded paddy test; conditions: for Plant response rating, Flood, Rice: 250 g ai/ha, flooded paddy test, visual rating on 0 to 100 scale (0 no effect, 100 complete control) after 13 to 15 days; for Plant response rating, Rice: Flood (flooded paddy test), 13 to 15 days
How it was run: as §2

[11] = Postemergence, 125 g ai/ha, visual injury, 0 to 100 scale (0 no effect, 100 complete control), approx. ten days
[12] = Postemergence, 500 g ai/ha, 0 to 100 scale, 0 = no effect, 100 = complete control, approx. ten days
[13] = Preemergence, 125 g ai/ha, 0 to 100 scale, 0 = no effect, 100 = complete control
[14] = Preemergence, 500 g ai/ha, visual injury, 0 to 100 scale (0 no effect, 100 complete control), approx. ten days
[15] = 31 g ai/ha, scale of 0 to 100 where 0 is no effect and 100 is complete control
[16] = 62 g ai/ha, scale 0 to 100, 0 is no effect, 100 is complete control
[17] = 125 g ai/ha, scale 0 to 100, 0 is no effect, 100 is complete control

O=C1CCCC([O-])=C1C(=O)c1cnc(-c2ccccc2)n(-c2ccccc2)c1=O.[K+] [Compound 14]
Wheat plant response rating [1, 11]: 0 | Plant response rating, Wheat [1, 12]: 0 | Plant response rating, Wheat [1, 13]: 0 | Plant response rating, Wheat [1, 14]: 0 | Corn plant response rating (corn (Zea mays); [11]): 0 | Plant response rating, Corn (corn (Zea mays); [12]): 20 | Plant response rating, Corn (corn (Zea mays); [13]): 0 | Plant response rating, Corn (corn (Zea mays); [14]): 0 | Velvetleaf plant response rating [2, 11]: 100 | Plant response rating, Velvetleaf [2, 12]: 100 | Plant response rating, Velvetleaf [2, 13]: 90 | Plant response rating, Velvetleaf [2, 14]: 100 | Barnyardgrass plant response rating [3, 11]: 30 | Plant response rating, Barnyardgrass [3, 12]: 80 | Plant response rating, Barnyardgrass [3, 13]: 10 | Plant response rating, Barnyardgrass [3, 14]: 70 | Crabgrass, Large plant response rating [4, 11]: 30 | Plant response rating, Crabgrass, Large [4, 12]: 90 | Plant response rating, Crabgrass, Large [4, 13]: 30 | Plant response rating, Crabgrass, Large [4, 14]: 90 | Morningglory plant response rating [5, 11]: 20 | Plant response rating, Morningglory [5, 12]: 100 | Plant response rating, Morningglory [5, 13]: 10 | Plant response rating, Morningglory [5, 14]: 60 | Foxtail, Giant plant response rating [6, 11]: 30 | Plant response rating, Foxtail, Giant [6, 12]: 90 | Plant response rating, Foxtail, Giant [6, 13]: 40 | Plant response rating, Foxtail, Giant [6, 14]: 90 | Pigweed plant response rating [7, 11]: 80 | Plant response rating, Pigweed [7, 12]: 100 | Plant response rating, Pigweed [7, 13]: 100 | Plant response rating, Pigweed [7, 14]: 100 | Plant response rating, Flood, Barnyardgrass [8]: 0 | Plant response rating, Barnyardgrass [8, 15]: 0 | Plant response rating, Barnyardgrass [8, 16]: 0 | Plant response rating, Barnyardgrass [8, 17]: 0 | Plant response rating, Flood, Ducksalad [9]: 40 | Plant response rating, Ducksalad [9, 15]: 0 | Plant response rating, Ducksalad [9, 16]: 20 | Plant response rating, Ducksalad [9, 17]: 30 | Plant response rating, Flood, Sedge, Umbrella [10]: 40 | Plant response rating, Sedge, Umbrella [10, 15]: 0 | Plant response rating, Sedge, Umbrella [10, 16]: 0 | Plant response rating, Sedge, Umbrella [10, 17]: 0 | Plant response rating, Flood, Rice (rice (Oryza sativa)): 0 | Plant response rating, Rice (rice (Oryza sativa); [15]): 0 | Plant response rating, Rice (rice (Oryza sativa); [16]): 0 | Plant response rating, Rice (rice (Oryza sativa); [17]): 0

COc1cccc(-n2c(-c3ccccc3)ncc(C(=O)C3=C(O)CCCC3=O)c2=O)c1 [Compound 19]
Wheat plant response rating [1, 11]: 0 | Plant response rating, Wheat [1, 12]: 0 | Plant response rating, Wheat [1, 13]: 0 | Plant response rating, Wheat [1, 14]: 0 | Corn plant response rating (corn (Zea mays); [11]): 0 | Plant response rating, Corn (corn (Zea mays); [12]): 10 | Plant response rating, Corn (corn (Zea mays); [13]): 0 | Plant response rating, Corn (corn (Zea mays); [14]): 0 | Velvetleaf plant response rating [2, 11]: 100 | Plant response rating, Velvetleaf [2, 12]: 100 | Plant response rating, Velvetleaf [2, 13]: 50 | Plant response rating, Velvetleaf [2, 14]: 100 | Barnyardgrass plant response rating [3, 11]: 0 | Plant response rating, Barnyardgrass [3, 12]: 70 | Plant response rating, Barnyardgrass [3, 13]: 10 | Plant response rating, Barnyardgrass [3, 14]: 90 | Crabgrass, Large plant response rating [4, 11]: 0 | Plant response rating, Crabgrass, Large [4, 12]: 20 | Plant response rating, Crabgrass, Large [4, 13]: 20 | Plant response rating, Crabgrass, Large [4, 14]: 80 | Morningglory plant response rating [5, 11]: 0 | Plant response rating, Morningglory [5, 12]: 60 | Plant response rating, Morningglory [5, 13]: 0 | Plant response rating, Morningglory [5, 14]: 50 | Foxtail, Giant plant response rating [6, 11]: 20 | Plant response rating, Foxtail, Giant [6, 12]: 50 | Plant response rating, Foxtail, Giant [6, 13]: 10 | Plant response rating, Foxtail, Giant [6, 14]: 30 | Pigweed plant response rating [7, 11]: 80 | Plant response rating, Pigweed [7, 12]: 100 | Plant response rating, Pigweed [7, 13]: 80 | Plant response rating, Pigweed [7, 14]: 90 | Plant response rating, Flood, Barnyardgrass [8]: 15 | Plant response rating, Barnyardgrass [8, 15]: 0 | Plant response rating, Barnyardgrass [8, 16]: 0 | Plant response rating, Barnyardgrass [8, 17]: 0 | Plant response rating, Flood, Ducksalad [9]: 90 | Plant response rating, Ducksalad [9, 15]: 0 | Plant response rating, Ducksalad [9, 16]: 75 | Plant response rating, Ducksalad [9, 17]: 85 | Plant response rating, Flood, Sedge, Umbrella [10]: 95 | Plant response rating, Sedge, Umbrella [10, 15]: 0 | Plant response rating, Sedge, Umbrella [10, 16]: 70 | Plant response rating, Sedge, Umbrella [10, 17]: 85 | Plant response rating, Flood, Rice (rice (Oryza sativa)): 0 | Plant response rating, Rice (rice (Oryza sativa); [15]): 0 | Plant response rating, Rice (rice (Oryza sativa); [16]): 0 | Plant response rating, Rice (rice (Oryza sativa); [17]): 0

Source: US8952024B2, “Herbicidal pyrimidone derivatives” (E I du Pont de Nemours and Company, priority 2009, dated 2015)
